Our source for the IC50 values is patent publication US20210387966A1, “2-AMINO-N-HETEROARYL-NICOTINAMIDES AS NAV1.8 INHIBITORS” (Merck Sharp & Dohme Corp., priority 2018, published 2021).

What is called IC50 is the concentration that inhibits the measured activity by half.

The structures appear in SMILES notation.

The target of this experiment is T1, human Nav1.8 channels (Homo sapiens, UniProt Q9Y5Y9).
T1 construct: expressed in transfected cells
T1 sequence (Q9Y5Y9 whole entry): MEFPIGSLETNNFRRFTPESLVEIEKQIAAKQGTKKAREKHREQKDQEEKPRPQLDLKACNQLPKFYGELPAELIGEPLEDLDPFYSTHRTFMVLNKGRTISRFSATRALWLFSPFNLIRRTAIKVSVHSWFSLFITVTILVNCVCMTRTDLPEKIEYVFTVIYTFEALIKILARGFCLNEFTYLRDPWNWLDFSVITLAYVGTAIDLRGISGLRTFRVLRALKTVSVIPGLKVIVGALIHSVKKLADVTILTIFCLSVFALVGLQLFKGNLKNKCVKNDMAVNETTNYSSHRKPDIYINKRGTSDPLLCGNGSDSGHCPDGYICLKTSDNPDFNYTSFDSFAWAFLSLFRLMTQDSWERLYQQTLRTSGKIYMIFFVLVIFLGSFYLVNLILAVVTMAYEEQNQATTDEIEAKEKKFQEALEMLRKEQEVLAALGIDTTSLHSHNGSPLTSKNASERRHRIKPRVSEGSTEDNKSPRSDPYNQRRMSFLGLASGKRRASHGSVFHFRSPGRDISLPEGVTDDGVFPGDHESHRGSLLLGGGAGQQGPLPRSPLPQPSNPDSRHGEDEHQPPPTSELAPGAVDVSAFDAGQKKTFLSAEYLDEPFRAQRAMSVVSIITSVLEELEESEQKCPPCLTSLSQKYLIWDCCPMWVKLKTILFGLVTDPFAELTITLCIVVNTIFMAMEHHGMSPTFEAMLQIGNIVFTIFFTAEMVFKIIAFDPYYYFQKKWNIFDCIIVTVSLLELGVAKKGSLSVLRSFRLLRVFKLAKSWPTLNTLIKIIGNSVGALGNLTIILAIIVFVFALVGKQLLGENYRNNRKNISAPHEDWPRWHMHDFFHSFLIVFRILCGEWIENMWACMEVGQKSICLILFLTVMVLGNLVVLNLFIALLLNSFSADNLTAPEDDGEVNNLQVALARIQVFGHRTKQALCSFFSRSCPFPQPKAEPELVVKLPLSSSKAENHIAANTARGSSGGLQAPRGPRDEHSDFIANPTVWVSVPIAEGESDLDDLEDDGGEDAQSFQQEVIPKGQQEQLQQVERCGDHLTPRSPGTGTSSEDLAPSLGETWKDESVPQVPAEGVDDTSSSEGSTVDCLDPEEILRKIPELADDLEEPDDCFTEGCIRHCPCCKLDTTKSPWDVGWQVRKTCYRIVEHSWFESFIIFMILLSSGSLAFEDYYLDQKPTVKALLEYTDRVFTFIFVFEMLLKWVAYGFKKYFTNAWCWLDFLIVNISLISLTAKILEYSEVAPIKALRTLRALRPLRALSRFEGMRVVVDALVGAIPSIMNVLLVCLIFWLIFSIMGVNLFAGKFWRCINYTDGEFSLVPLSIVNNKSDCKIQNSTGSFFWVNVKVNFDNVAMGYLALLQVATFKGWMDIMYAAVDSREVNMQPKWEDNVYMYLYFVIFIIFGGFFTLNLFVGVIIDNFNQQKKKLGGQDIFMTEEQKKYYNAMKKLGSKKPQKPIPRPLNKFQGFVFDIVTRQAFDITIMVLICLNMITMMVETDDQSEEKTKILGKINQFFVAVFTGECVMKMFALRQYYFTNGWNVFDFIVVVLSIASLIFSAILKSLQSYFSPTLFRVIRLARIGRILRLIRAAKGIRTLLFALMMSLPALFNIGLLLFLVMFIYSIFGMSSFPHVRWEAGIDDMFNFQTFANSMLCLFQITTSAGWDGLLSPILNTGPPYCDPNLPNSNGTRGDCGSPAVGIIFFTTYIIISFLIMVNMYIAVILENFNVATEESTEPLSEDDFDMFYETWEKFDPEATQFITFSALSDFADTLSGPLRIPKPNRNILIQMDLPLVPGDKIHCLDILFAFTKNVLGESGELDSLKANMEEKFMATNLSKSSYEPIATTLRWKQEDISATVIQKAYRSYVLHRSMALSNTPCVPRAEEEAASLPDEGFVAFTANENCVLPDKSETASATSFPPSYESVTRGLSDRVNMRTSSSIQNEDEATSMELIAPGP
In words: Nav1.8 Qube automated patch-clamp assay. It counts as cell-based. The settings on record: human Nav1.8 stably expressed in HEK 293 cells; whole-cell voltage clamp, room temperature; resting or inactivated state not specified; read-out: IC50 values (nM) for Examples in the Nav1.8 Qube Assay. The procedure, abridged: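 Whole-cell patch clamp at room temperature on HEK293 cells stably expressing human Nav1.8. A 1 Hz train of ten 20 ms pulses to 10 mV from −90 mV holding, with −67 mV repolarization, was applied; first- and tenth-pulse peak currents gave resting and inactivated-state IC50s by Hill fitting.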
For orientation: In patch-clamp work, channel activity is measured electrically.
As to `NS(=O)(=O)c1cc(NC(=O)c2cc(C(F)(F)F)cnc2N2CCC(Oc3cccc(C(F)(F)F)c3)CC2)ccn1` [Example 98, N-(2-sulfamoyl-4-pyridyl)-5-(trifluoromethyl)-2-[4-[3-(trifluoromethyl)phenoxy]-1-piperidyl]pyridine-3-carboxamide], the IC50 came out at 2370 nM. In the case of `NS(=O)(=O)c1cc(NC(=O)c2cc(C(F)(F)F)cnc2N2CCN(CC3CC3)C(=O)C2)ccn1` [Example 99, 2-[4-(cyclopropylmethyl)-3-oxo-piperazin-1-yl]-N-(2-sulfamoyl-4-pyridyl)-5-(trifluoromethyl)pyridine-3-carboxamide] it was 2560 nM; in that of `NS(=O)(=O)c1cc(NC(=O)c2cc(C(F)(F)F)cnc2N2CCN(CC(F)(F)F)CC2)ccn1` [Example 100, N-(2-sulfamoyl-4-pyridyl)-2-[4-(2,2,2-trifluoroethyl)piperazin-1-yl]-5-(trifluoromethyl)pyridine-3-carboxamide], 4630 nM.

With `C[C@@H]1CN(c2ncc(C(F)(F)F)cc2C(=O)Nc2ccnc(S(N)(=O)=O)c2)C[C@@H](C(F)(F)F)O1` [Example 102, 2-((2R,6S)-2-methyl-6-(trifluoromethyl)morpholino)-N-(2-sulfamoylpyridin-4-yl)-5-(trifluoromethyl)nicotinamide], the IC50 was found to be 27 nM. Turning to `C[C@H]1CN(c2ncc(C(F)(F)F)cc2C(=O)Nc2ccnc(S(N)(=O)=O)c2)C[C@H](C(F)(F)F)O1` [Example 103, 2-((2S,6R)-2-methyl-6-(trifluoromethyl)morpholino)-N-(2-sulfamoylpyridin-4-yl)-5-(trifluoromethyl)nicotinamide], the IC50 was 166 nM. The figure for `NS(=O)(=O)c1cc(NC(=O)c2cc(C(F)(F)F)cnc2N2CCCO[C@H](C(F)(F)F)C2)ccn1` [Example 104, (S)-N-(2-sulfamoylpyridin-4-yl)-5-(trifluoromethyl)-2-(2-(trifluoromethyl)-1,4-oxazepan-4-yl)nicotinamide] is 56 nM; for `NS(=O)(=O)c1cc(NC(=O)c2cc(C(F)(F)F)cnc2N2CCCO[C@@H](C(F)(F)F)C2)ccn1` [Example 105, (R)-N-(2-sulfamoylpyridin-4-yl)-5-(trifluoromethyl)-2-(2-(trifluoromethyl)-1,4-oxazepan-4-yl)nicotinamide] it is 696 nM; for `CC1(C)CO[C@@H](C(F)(F)F)CN(c2ncc(C(F)(F)F)cc2C(=O)Nc2ccnc(S(N)(=O)=O)c2)C1` [Example 106, 2-[(2R)-6,6-dimethyl-2-(trifluoromethyl)-1,4-oxazepan-4-yl]-N-(2-sulfamoyl-4-pyridyl)-5-(trifluoromethyl)pyridine-3-carboxamide] it is 103 nM. In the case of `CC1(C)CN(c2ncc(C(F)(F)F)cc2C(=O)Nc2ccnc(S(N)(=O)=O)c2)CCCO1` [Example 107, 2-(2,2-dimethyl-1,4-oxazepan-4-yl)-N-(2-sulfamoyl-4-pyridyl)-5-(trifluoromethyl)pyridine-3-carboxamide] it was 139 nM. The figure for `C[C@H]1CCN(c2ncc(C(F)(F)F)cc2C(=O)Nc2ccnc(S(N)(=O)=O)c2)CCO1` [Example 108, 2-[(7S)-7-methyl-1,4-oxazepan-4-yl]-N-(2-sulfamoyl-4-pyridyl)-5-(trifluoromethyl)pyridine-3-carboxamide] is 191 nM; for `CC(C)(C)NS(=O)(=O)c1cc(NC(=O)c2cc(Cl)cnc2N2CCCC(F)(F)CC2)ccn1` [Example 109, N-[2-(tert-butylsulfamoyl)-4-pyridyl]-5-chloro-2-(4,4-difluoroazepan-1-yl)pyridine-3-carboxamide] it is 289 nM. For the compound `C[C@H]1CN(c2ncc(C(F)(F)F)cc2C(=O)Nc2ccnc(S(N)(=O)=O)c2)CCO1` [Example 110, 2-[(2S)-2-methylmorpholin-4-yl]-N-(2-sulfamoyl-4-pyridyl)-5-(trifluoromethyl)pyridine-3-carboxamide], the IC50 came out at 505 nM. In the case of `C[C@@H]1CN(c2ncc(C(F)(F)F)cc2C(=O)Nc2ccnc(S(N)(=O)=O)c2)CCCO1` [Example 111, 2-[(2R)-2-methyl-1,4-oxazepan-4-yl]-N-(2-sulfamoyl-4-pyridyl)-5-(trifluoromethyl)pyridine-3-carboxamide] it was 633 nM. The figure for `CC1(O)CCCN(c2ncc(C(F)(F)F)cc2C(=O)Nc2ccnc(S(N)(=O)=O)c2)C1` (centres unmarked) [Example 112, 2-(3-hydroxy-3-methyl-1-piperidyl)-N-(2-sulfamoyl-4-pyridyl)-5-(trifluoromethyl)pyridine-3-carboxamide] is 8410 nM. The figure for `CC1(C)c2cc(F)ccc2CN1c1ncc(C(F)(F)F)cc1C(=O)Nc1ccnc(S(N)(=O)=O)c1` [Example 113, 2-(6-fluoro-1,1-dimethyl-isoindolin-2-yl)-N-(2-sulfamoyl-4-pyridyl)-5-(trifluoromethyl)pyridine-3-carboxamide] is 9330 nM. For the compound `Cc1sc(S(N)(=O)=O)cc1NC(=O)c1cc(C(F)(F)F)cnc1N1CCCCCC1` [Example 114, 2-(azepan-1-yl)-N-(2-methyl-5-sulfamoyl-thiophen-3-yl)-5-(trifluoromethyl)pyridine-3-carboxamide], the IC50 came to 95 nM.

For the compound `CC1CCN(c2ncc(C(F)(F)F)cc2C(=O)Nc2ccnc(S(N)(=O)=O)c2)CCC1(F)F` (centres unmarked) [Example 115, 2-(4,4-difluoro-5-methylazepan-1-yl)-N-(2-sulfamoylpyridin-4-yl)-5-(trifluoromethyl)pyridine-3-carboxamide], the IC50 was determined as 1.6 nM. In the case of `NS(=O)(=O)c1cc(NC(=O)c2cc(C(F)(F)F)cnc2N2CCC[C@H]2C(F)(F)F)ccn1` [Example 126, N-(2-sulfamoylpyridin-4-yl)-5-(trifluoromethyl)-2-[(2S)-2-(trifluoromethyl)pyrrolidin-1-yl]pyridine-3-carboxamide] it was 21 nM; in that of `NS(=O)(=O)c1cc(NC(=O)c2cc(C(F)(F)F)cnc2N2CCC[C@@H]2C(F)(F)F)ccn1` [Example 127, (R)-N-(2-sulfamoylpyridin-4-yl)-5-(trifluoromethyl)-2-(2-(trifluoromethyl)pyrrolidin-1-yl)nicotinamide], 220 nM; in that of `NS(=O)(=O)c1cc(NC(=O)c2cc(C(F)(F)F)cnc2N2CCC(C(F)(F)F)C2)ccn1` (centres unmarked) [Example 128, N-(2-sulfamoylpyridin-4-yl)-5-(trifluoromethyl)-2-[3-(trifluoromethyl)pyrrolidin-1-yl]pyridine-3-carboxamide], 94 nM. As for `CC1CN(c2ncc(C(F)(F)F)cc2C(=O)Nc2ccnc(S(N)(=O)=O)c2)CCCC1(F)F` (centres unmarked) [Example 131, 2-(4,4-difluoro-3-methylazepan-1-yl)-N-(2-sulfamoylpyridin-4-yl)-5-(trifluoromethyl)nicotinamide], the IC50 was found to be 2 nM.

In the case of `NC(=O)c1cc(NC(=O)c2cc(C(F)(F)F)cnc2N2CCCC(F)(F)CC2)ccn1` [Example 137, 4-(2-(4,4-difluoroazepan-1-yl)-5-(trifluoromethyl)nicotinamido)picolinamide], the IC50 was 26 nM.

Consider `NS(=O)(=O)c1cc(NC(=O)c2cc(C(F)(F)F)cnc2N2CCCCCC2)ccn1` [Example 139, 2-(azepan-1-yl)-N-(2-sulfamoyl-4-pyridyl)-5-(trifluoromethyl)pyridine-3-carboxamide], for which the IC50 worked out at 16 nM. The figure for `CS(=O)(=O)c1cc(NC(=O)c2cc(C(F)(F)F)cnc2N2CCCCCC2)ccn1` [Example 140, 2-(azepan-1-yl)-N-(2-methylsulfonyl-4-pyridyl)-5-(trifluoromethyl)-pyridine-3-carboxamide] is 91 nM. Take `NS(=O)(=O)c1cccc(NC(=O)c2cc(C(F)(F)F)cnc2N2CCCCCC2)n1` [Example 141, 2-(azepan-1-yl)-N-(6-sulfamoyl-2-pyridyl)-5-(trifluoromethyl)pyridine-3-carboxamide]: the IC50 was found to be 245 nM.

In the case of `COc1ccc(C(=O)Nc2ccnc(S(N)(=O)=O)c2)c(N2CCCC(F)(F)CC2)n1` [Example 142, 2-(4,4-difluoroazepan-1-yl)-6-methoxy-N-(2-sulfamoylpyridin-4-yl)nicotinamide], the IC50 was 29 nM. In the case of `COc1cc(NC(=O)c2cc(C(F)(F)F)cnc2N2CCC3(CC2)CC3)ccn1` [Example 143, N-(2-methoxypyridin-4-yl)-2-(6-azaspiro[2.5]octan-6-yl)-5-(trifluoromethyl)-nicotinamide] it was 1540 nM; in that of `NS(=O)(=O)c1cncc(NC(=O)c2cc(C(F)(F)F)cnc2N2CCCC(F)(F)CC2)c1` [Example 144, 2-(4,4-difluoroazepan-1-yl)-N-(5-sulfamoyl-3-pyridyl)-5-(trifluoro-methyl)pyridine-3-carboxamide], 36 nM; in that of `NS(=O)(=O)c1cncc(NC(=O)c2cc(C(F)(F)F)cnc2N2CCCCCC2)c1` [Example 145, 2-(azepan-1-yl)-N-(5-sulfamoyl-3-pyridyl)-5-(trifluoromethyl) pyridine-3-carboxamide], 161 nM. `COc1cc(NC(=O)c2cc(C(F)(F)F)cnc2N2CCCC(F)(F)CC2)ccn1` [Example 146, 2-(4,4-difluoroazepan-1-yl)-N-(2-methoxy-4-pyridyl)-5-(trifluoro-methyl)pyridine-3-carboxamide]: the IC50 is 177 nM. The figure for `C[C@@H]1CN(c2ncc(C(F)(F)F)cc2C(=O)Nc2ccnc(C#N)c2)C[C@H](C)C1(F)F` [Example 150, N-(2-cyano-4-pyridyl)-2-[(3S,5R)-4,4-difluoro-3,5-dimethyl-1-piperidyl]-5-(tri-fluoromethyl)pyridine-3-carboxamide] is 77 nM; for `CS(=O)(=O)c1cc(NC(=O)c2cc(C(F)(F)F)cnc2N2C[C@@H]3[C@H](C2)C(F)(F)C3(F)F)ccn1` [Example 151, N-(2-methylsulfonyl-4-pyridyl)-2-[(1R,5S)-6,6,7,7-tetrafluoro-3-azabicyclo[3.2.0]heptan-3-yl]-5-(trifluoro-methyl)pyridine-3-carboxamide] it is 89 nM.
